This passage reports IC50 results from publication PMC7687180 (Chembiochem, 2020).

Structures are written as SMILES. Read-outs that look alike come from different tables or passages of the source.

For orientation: IC50 means the concentration at which inhibition is half-maximal. Low readings indicate higher potency, high ones lower potency.

The target of experiment [1] is T1, SdeC (Legionella pneumophila, UniProt Q5ZTK8).
T1 construct: gene lpg2153
Nature of the experiment: biochemical.

For experiment [2], the target named is T1, SdeC. Nature of the experiment: biochemical. This is another data set of the same source.

On to `NC(=O)c1ccc[n+]([C@@H]2O[C@H](COP(=O)([O-])OP(=O)(O)OC[C@H]3O[C@@H](n4cnc5c(N)ncnc54)[C@H](O)[C@@H]3O)[C@@H](O)[C@H]2O)c1` [NAD^+], for which, on SdeC [1], half-maximal inhibition (IC50) required 27.7 ± 1.9 µM.

For the compound `NC(=O)c1ccc[n+]([C@@H]2S[C@H](COP(=O)(O)OP(=O)([O-])OC[C@H]3O[C@@H](n4cnc5c(N)ncnc54)[C@H](O)[C@@H]3O)[C@@H](O)[C@H]2O)c1` [compound 2, S-NAD^+], on SdeC [2], the IC50 was found to be 27.9 µM.

`NC(=O)c1cccc([C@@H]2O[C@H](COP(=O)(O)OP(=O)(O)OC[C@H]3O[C@@H](n4cnc5c(N)ncnc54)[C@H](O)[C@@H]3O)[C@@H](O)[C@H]2O)c1` [compound 3, BAD]: at SdeC [2], the IC50 is 38.9 µM.
